Laboratory results from paper PMC10052035, “Virtual Screening, Structural Analysis, and Formation Thermodynamics of Carbamazepine Cocrystals” (Pharmaceutics, 2023).
Values after ≈ are worked out from the molar mass of the structure shown. Where two headings read alike, the source gives them in different places.

Experiments:
[1] = cited from earlier work
[2] = cited from earlier work; remark: listed apart in the source
[3] = Solubility of cocrystals and their constituents in organic solvents (shake-flask, HPLC); settings: for solubility at 48 h: organic solvent or mixture, thermodynamic from solid; for Cp∙10^2, solubility of pure component: 293.15 K, value is C∙10^2
Description: For the [CBZ + 3AcAmBA] (1:1) cocrystal, methanol was used. For [CBZ + 4AcAmBA] (1:1), all the experiments were performed in acetonitrile. An excess of the solid was placed in an Eppendorf tube, and 2 mL of solvent was added. The resulting suspension was shaken in a ThermoMixer C (Eppendorf, Hamburg, Germany) at 800 rpm for 48 h at the specified temperature. Subsequently, the saturated solution was separated using a 0.22 μm PTEF filter, diluted, and analyzed using HPLC. The solid phases after the experiment were collected and characterized by PXRD. Each experiment was repeated three times.
The HPLC was performed on an LC-20 AD Shimadzu Prominence model (Shimadzu, Kyoto, Japan) equipped with a PDA detector and a Luna C-18 column (150 mm × 4.6 mm i.d., 5 μm particle size, and 100 Å pore size). The column temperature was set to 40 °C. To achieve the proper separation of the cocrystal components, different ratios of the mobile phase, consisting of acetonitrile and a 0.1% aqueous solution of trifluoroacetic acid (35:65 v/v), were used. The flow rate was 1.0 mL·min^−1, and the injection volume was 20 μL. The UV detection of carbamazepine, 2-acetamidobenzoic acid, 3-acetamidobenzoic acid, and 4-acetamidobenzoic acid was carried out at the wavelengths of 285 nm, 249 nm, 220 nm, and 266 nm, respectively.

[4] = type: physicochemical; settings: acidic conditions (pH 2.0), 310.2 K
Description: The saturation shake-flask method was used to measure the aqueous solubility of the CBZ cocrystals in a pH 2.0 buffer solution at the eutectic point, where drug and cocrystal are in equilibrium with the solution. The eutectic point between the cocrystal and the drug was reached by suspending 80 mg of the cocrystal and 30 mg of CBZ in 2 mL of the buffer solution. The obtained suspension was stirred continuously for 72 h at 37.0 ± 0.1 °C. After equilibration, the final pH of the solution was measured. The suspension was diluted with the mobile phase after being filtered through a […] PTEF filter. Concentrations of compounds were analyzed by HPLC. The solid phases after the experiment were characterized by PXRD.
The column temperature was set to 40 °C.

SMILES: Cc1cc(O)c2c(c1)C(=O)c1cc(O)cc(O)c1C2=O [Emodin]
- log(S0), intrinsic solubility ([1]; 2-propanol, ref [6]): -1.68 mol⋅L-1
- log(S0), intrinsic solubility ([1]; Acetone, ref [6]): -1.29 mol⋅L-1
- log(S0), intrinsic solubility ([1]; Ethanol, ref [6]): -1.74 mol⋅L-1
- log(S0), intrinsic solubility ([1]; Ethyl acetate, ref [6]): -1.43 mol⋅L-1

SMILES: Cc1ccc(-c2cc(C(F)(F)F)nn2-c2ccc(S(N)(=O)=O)cc2)cc1.NC(=O)c1cccnc1 [[Celecoxib + Nicotinamide] (1:1)]
- TΔformS ([2]; 298 K, ref [20]): 1.65 ± 0.478 kcal/mol
- ΔformG ([2]; 298 K, ref [20]): -0.0837 ± 0.012 kcal/mol
- ΔformH ([2]; 298 K, ref [20]): 1.55 ± 0.359 kcal/mol

SMILES: COc1ccc(C(C)=O)c(O)c1 [Paeonol]
- log(S0), intrinsic solubility ([1]; 2-propanol, ref [6]): -0.12 mol⋅L-1
- log(S0), intrinsic solubility ([1]; Ethanol, ref [6]): 0.08 mol⋅L-1
- log(S0), intrinsic solubility ([1]; Methanol, ref [6]): 0.22 mol⋅L-1

SMILES: Cc1cc(C)nc(NS(=O)(=O)c2ccc(N)cc2)n1.O=C(O)c1ccccc1O [[Sulfamethazine + salicylic acid] (1:1)]
- TΔformS ([2]; 293 K, ref [21]): 7.1 kcal/mol
- ΔformG ([2]; 293 K, ref [21]): -1.7 kcal/mol
- ΔformH ([2]; 293 K, ref [21]): 5.52 kcal/mol

SMILES: NC(=O)c1ccccc1N.O=C1CN(N=Cc2ccc([N+](=O)[O-])o2)C(=O)N1
- TΔformS ([2]; 298 K, ref [19]): 0.311 ± 0.263 kcal/mol
- ΔformG ([2]; 298 K, ref [19]): -1.08 ± 0.12 kcal/mol
- ΔformH ([2]; 298 K, ref [19]): -0.789 ± 0.19 kcal/mol
- TΔformS ([2]; 298 K, ref [19], listed as 13): ≈ 0 kJ·mol-1

SMILES: NC(=O)c1cnccn1.Nc1ccc(C(=O)O)cc1
- TΔformS ([2]; 298 K, ref [14]): -8.01 ± 0.765 kcal/mol
- ΔformG ([2]; 298 K, ref [14]): -1.46 ± 0.072 kcal/mol
- ΔformH ([2]; 298 K, ref [14]): -9.46 ± 0.693 kcal/mol

SMILES: NCC(=O)O.O=C(O)/C=C\C(=O)O [[Glycine + Maleic acid] (1:1)]
- TΔformS ([2]; 298 K, ref [17]): -1.36 ± 0.239 kcal/mol
- ΔformG ([2]; 298 K, ref [17]): -1.29 ± 0.096 kcal/mol
- ΔformH ([2]; 298 K, ref [17]): -2.65 ± 0.22 kcal/mol

SMILES: CC(O)(CS(=O)(=O)c1ccc(F)cc1)C(=O)Nc1ccc(C#N)c(C(F)(F)F)c1.NC(=O)c1ccccc1 (centres unmarked) [[Bicalutamide + Benzamide] (1:1)]
- TΔformS ([2]; 298 K, ref [11]): -3.87 ± 0.263 kcal/mol
- ΔformG ([2]; 298 K, ref [11]): -0.813 ± 0.072 kcal/mol
- ΔformH ([2]; 298 K, ref [11]): -4.68 ± 0.19 kcal/mol

SMILES: NC(=O)c1ccccc1O.O=C1CN(N=Cc2ccc([N+](=O)[O-])o2)C(=O)N1 [[Nitrofurantoin + Salicylamide] (1:1)]
- TΔformS ([2]; 298 K, ref [19]): 0.072 ± 0.17 kcal/mol
- ΔformG ([2]; 298 K, ref [19]): -0.14 ± 0.096 kcal/mol
- ΔformH ([2]; 298 K, ref [19]): -0.072 ± 0.14 kcal/mol
- TΔformS ([2]; 298 K, ref [19], listed as 14): ≈ 0 kJ·mol-1

SMILES: NC(=O)c1cccnc1 [Nicotinamide]
- log(S0), intrinsic solubility ([1]; 2-propanol, ref [10]): -0.2 mol⋅L-1
- log(S0), intrinsic solubility ([1]; Ethanol, ref [10]): 0.04 mol⋅L-1
- log(S0), intrinsic solubility ([1]; Ethyl acetate, ref [10]): -0.96 mol⋅L-1

SMILES: CC(O)(CS(=O)(=O)c1ccc(F)cc1)C(=O)Nc1ccc(C#N)c(C(F)(F)F)c1.NC(=O)c1ccccc1O (centres unmarked) [[Bicalutamide + Salicylamide] (1:1)]
- TΔformS ([2]; 298 K, ref [11]): -2.2 ± 0.19 kcal/mol
- ΔformG ([2]; 298 K, ref [11]): -0.526 ± 0.072 kcal/mol
- ΔformH ([2]; 298 K, ref [11]): -2.72 ± 0.12 kcal/mol

SMILES: NC(=O)c1ccncc1.O=C1CN(N=Cc2ccc([N+](=O)[O-])o2)C(=O)N1 [[Nitrofurantoin + Isonicotinamide] (1:1)]
- TΔformS ([2]; 298 K, ref [19]): 1.43 ± 0.17 kcal/mol
- ΔformG ([2]; 298 K, ref [19]): -1.12 ± 0.096 kcal/mol
- ΔformH ([2]; 298 K, ref [19]): 0.311 ± 0.14 kcal/mol

SMILES: O=C(NN=Cc1ccccc1O)c1ccncc1.O=C1NS(=O)(=O)c2ccccc21 [[Salinazid + Saccharin] (1:1)]
- TΔformS ([2]; 298 K, ref [13]): -2.65 ± 0.382 kcal/mol
- ΔformG ([2]; 298 K, ref [13]): -1.74 ± 0.14 kcal/mol
- ΔformH ([2]; 298 K, ref [13]): -4.4 ± 0.239 kcal/mol

SMILES: NCC(=O)O.NCC(=O)O.O=C(O)/C=C/C(=O)O [[Glycine + Fu maric acid] (2:1)]
- TΔformS ([2]; 298 K, ref [17]): -0.335 ± 0.14 kcal/mol
- ΔformG ([2]; 298 K, ref [17]): -1.05 ± 0.072 kcal/mol
- ΔformH ([2]; 298 K, ref [17]): -1.39 ± 0.12 kcal/mol

SMILES: NC(=O)c1ccccn1.O=C1CN(N=Cc2ccc([N+](=O)[O-])o2)C(=O)N1 [[Nitrofurantoin + Picolinamide] (1:1)]
- TΔformS ([2]; 298 K, ref [19]): 0.14 ± 0.19 kcal/mol
- ΔformG ([2]; 298 K, ref [19]): -1.17 ± 0.12 kcal/mol
- ΔformH ([2]; 298 K, ref [19]): -1.05 ± 0.17 kcal/mol
- TΔformS ([2]; 298 K, ref [19], listed as 12): ≈ 0 kJ·mol-1

SMILES: NC(=O)N1c2ccccc2C=Cc2ccccc21.NC(=O)c1ccncc1 [[CBZ + isonicotinamide] (1:1)]
- TΔformS ([2]; 298 K, ref [22]): 5.26 ± 0.598 kcal/mol
- ΔformG ([2]; 298 K, ref [22]): -0.502 ± 0.024 kcal/mol
- ΔformH ([2]; 298 K, ref [22]): 4.76 ± 0.454 kcal/mol

SMILES: NC(=O)N1c2ccccc2C=Cc2ccccc21.NC(=O)c1ccccc1 [[CBZ + Benzamide] (1:1)]
- TΔformS ([2]; 298 K, ref [22]): 7.29 ± 0.693 kcal/mol
- ΔformG ([2]; 298 K, ref [22]): -1.15 ± 0.072 kcal/mol
- ΔformH ([2]; 298 K, ref [22]): 6.14 ± 0.454 kcal/mol

SMILES: NC(=O)N1c2ccccc2C=Cc2ccccc21 [CBZ, carbamazepine]
- solubility at 48 h ([3]; acetonitrile, 20 °C): 142 ± 3 mM (≈ 33.6 mg/mL)
- solubility at 48 h ([3]; acetonitrile, 25 °C): 162 ± 4 mM (≈ 38.3 mg/mL)
- solubility at 48 h ([3]; acetonitrile, 30 °C): 191 ± 4 mM (≈ 45.1 mg/mL)
- solubility at 48 h ([3]; acetonitrile, 35 °C): 222 ± 3 mM (≈ 52.5 mg/mL)
- solubility at 48 h ([3]; acetonitrile, 40 °C): 250 ± 4 mM (≈ 59.1 mg/mL)
- Cp∙10^2, solubility of pure component ([3]; acetonitrile): 14.2±0.3 mol/l
- solubility at 48 h ([3]; methanol, 20 °C): 220 ± 2 mM (≈ 52 mg/mL)
- solubility at 48 h ([3]; methanol, 25 °C): 248 ± 2 mM (≈ 58.6 mg/mL)
- solubility at 48 h ([3]; methanol, 30 °C): 285 ± 2 mM (≈ 67.3 mg/mL)
- solubility at 48 h ([3]; methanol, 35 °C): 323 ± 3 mM (≈ 76.3 mg/mL)
- solubility at 48 h ([3]; methanol, 40 °C): 356 ± 1 mM (≈ 84.1 mg/mL)
- Cp∙10^2, solubility of pure component ([3]; methanol): 22.0±0.2 mol/l
- log(S0), intrinsic solubility ([1]; 2-propanol, ref [6]): -1.36 mol⋅L-1
- log(S0), intrinsic solubility ([1]; 2-propanol, ref [10]): -1.3 mol⋅L-1
- log(S0), intrinsic solubility ([1]; Acetone, ref [6]): -1.27 mol⋅L-1
- log(S0), intrinsic solubility ([1]; Ethanol, ref [6]): -0.97 mol⋅L-1
- log(S0), intrinsic solubility ([1]; Ethanol, ref [10]): -0.85 mol⋅L-1
- log(S0), intrinsic solubility ([1]; Ethyl acetate, ref [6]): -1.32 mol⋅L-1
- log(S0), intrinsic solubility ([1]; Ethyl acetate, ref [10]): -1.31 mol⋅L-1
- log(S0), intrinsic solubility ([1]; Methanol, ref [6]): -0.49 mol⋅L-1

SMILES: CC(O)Cc1nsc(Nc2cccc(Cl)c2)n1.COc1cc(C(=O)O)ccc1O (centres unmarked) [[XIa+Vanillic acid] (1:1)]
- TΔformS ([2]; 298 K, ref [12]): -1.24 ± 0.311 kcal/mol
- ΔformG ([2]; 298 K, ref [12]): -1.27 ± 0.096 kcal/mol
- ΔformH ([2]; 298 K, ref [12]): -2.51 ± 0.22 kcal/mol

SMILES: COc1cc(C=NNC(=O)c2ccncc2)ccc1O.O=C1NS(=O)(=O)c2ccccc21 [[Vanillin isoniazid + Saccharin] (1:1)]
- TΔformS ([2]; 298 K, ref [13]): -1.05 ± 0.454 kcal/mol
- ΔformG ([2]; 298 K, ref [13]): -2.17 ± 0.19 kcal/mol
- ΔformH ([2]; 298 K, ref [13]): -3.23 ± 0.263 kcal/mol

SMILES: NC(=O)N1c2ccccc2C=Cc2ccccc21.O=C1NS(=O)(=O)c2ccccc21 [[CBZ + Saccharin] (1:1)]
- TΔformS ([2]; 306 K, ref [15]): -0.311 kcal/mol
- ΔformG ([2]; 306 K, ref [15]): -1.1 kcal/mol
- ΔformH ([2]; 306 K, ref [15]): -1.41 ± 0.22 kcal/mol

SMILES: NC(=O)N1c2ccccc2C=Cc2ccccc21.O [carbamazepine hydrate, reference compound]
- solubility [4]: (8.30 ± 0.02)·10^−4 mol·l^−1

SMILES: NC(=O)N1c2ccccc2C=Cc2ccccc21.NC(=O)c1ccc(O)cc1 [[CBZ + 4-Hydroxybenzamide] (1:1)]
- TΔformS ([2]; 298 K, ref [22]): -1.36 ± 0.12 kcal/mol
- ΔformG ([2]; 298 K, ref [22]): -1.6 ± 0.12 kcal/mol
- ΔformH ([2]; 298 K, ref [22]): -2.96 ± 0.22 kcal/mol

SMILES: O=C(O)CCCC(=O)O [Glutaric acid]
- log(S0), intrinsic solubility ([1]; 2-propanol, ref [10]): 0.56 mol⋅L-1
- log(S0), intrinsic solubility ([1]; Ethanol, ref [10]): 0.45 mol⋅L-1
- log(S0), intrinsic solubility ([1]; Ethyl acetate, ref [10]): 0 mol⋅L-1

SMILES: CNC(=O)c1cc(Oc2ccc(NC(=O)Nc3ccc(Cl)c(C(F)(F)F)c3)cc2)ccn1.O=c1[nH]cc(F)c(=O)[nH]1 [[Sorafenib + 5-fluorouracil] (1:1)]
- TΔformS ([2]; 303 K, ref [18]): 0.0048 ± 0.024 kcal/mol
- ΔformG ([2]; 303 K, ref [18]): -1.14 ± 0.022 kcal/mol
- ΔformH ([2]; 303 K, ref [18]): -1.14 ± 0.017 kcal/mol
- TΔformS ([2]; 303 K, ref [18], listed as 11): ≈ 0 kJ·mol-1
